Results as given in PubChem BioAssay (NCI).
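These data come from cells grown in 96-well plates and exposed to compound for 48 hours at five concentrations. Abbreviation: GI50, concentration required for 50% inhibition of growth. TGI: total growth inhibition.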 Where a SMILES comes first, the peptide text is derived from it. [ ]: non-standard residue; d: D form. The star is where a group is joined. Decanoyl = CCCCCCCCCC(=O)*; Leu(ol) = CC(C)C[C@H](N)CO; Iva = CC[C@](C)(N)C(=O)O; Aib = CC(C)(N)C(=O)O

Experiments:
Experiment in all cases: growth of human tumour cells (NCI), 48 h
786-0 renal = test system: 786-0 renal
A498 renal = test system: A498 renal
A549 NSCLC = test system: A549 NSCLC
ACHN renal = test system: ACHN renal
BT-549 breast = test system: BT-549 breast
CAKI-1 renal = test system: CAKI-1 renal
CCRF-CEM leukemia = test system: CCRF-CEM leukemia
COLO 205 colon = test system: COLO 205 colon
DU-145 prostate = test system: DU-145 prostate
EKVX NSCLC = test system: EKVX NSCLC
HCC-2998 colon = test system: HCC-2998 colon
HCT-116 colon = test system: HCT-116 colon
HCT-15 colon = test system: HCT-15 colon
HL-60(TB) leukemia = test system: HL-60(TB) leukemia
HOP-62 NSCLC = test system: HOP-62 NSCLC
HOP-92 NSCLC = test system: HOP-92 NSCLC
HS 578T breast = test system: HS 578T breast
HT29 colon = test system: HT29 colon
IGROV1 ovarian = test system: IGROV1 ovarian
K-562 leukemia = test system: K-562 leukemia
KM12 colon = test system: KM12 colon
LOX IMVI melanoma = test system: LOX IMVI melanoma
M14 melanoma = test system: M14 melanoma
MALME-3M melanoma = test system: MALME-3M melanoma
MCF7 breast = test system: MCF7 breast
MDA-MB-231 breast = test system: MDA-MB-231 breast
MDA-MB-435 = test system: MDA-MB-435
MOLT-4 leukemia = test system: MOLT-4 leukemia
NCI-H226 lung = test system: NCI-H226 lung
NCI-H23 lung = test system: NCI-H23 lung
NCI-H460 lung = test system: NCI-H460 lung
NCI-H522 lung = test system: NCI-H522 lung
NCI/ADR-RES ovarian = test system: NCI/ADR-RES ovarian
OVCAR-3 ovarian = test system: OVCAR-3 ovarian
OVCAR-4 ovarian = test system: OVCAR-4 ovarian
OVCAR-5 ovarian = test system: OVCAR-5 ovarian
OVCAR-8 ovarian = test system: OVCAR-8 ovarian
PC-3 prostate = test system: PC-3 prostate
RPMI-8226 leukemia = test system: RPMI-8226 leukemia
RXF 393 renal = test system: RXF 393 renal
SF-268 CNS = test system: SF-268 CNS
SF-295 CNS = test system: SF-295 CNS
SF-539 CNS = test system: SF-539 CNS
SK-MEL-2 melanoma = test system: SK-MEL-2 melanoma
SK-MEL-28 melanoma = test system: SK-MEL-28 melanoma
SK-MEL-5 melanoma = test system: SK-MEL-5 melanoma
SK-OV-3 ovarian = test system: SK-OV-3 ovarian
SN12C renal = test system: SN12C renal
SNB-19 CNS = test system: SNB-19 CNS
SNB-75 CNS = test system: SNB-75 CNS
SR leukemia = test system: SR leukemia
SW-620 colon = test system: SW-620 colon
T-47D breast = test system: T-47D breast
TK-10 renal = test system: TK-10 renal
U251 CNS = test system: U251 CNS
UACC-257 melanoma = test system: UACC-257 melanoma
UACC-62 melanoma = test system: UACC-62 melanoma
UO-31 renal = test system: UO-31 renal

## CCCCCCCCCC(=O)NC(C)(C)C(=O)N1CCC[C@H]1C(=O)N[C@@H](CC(C)C)C(=O)N[C@@](C)(CC)C(=O)N[C@@H](CCC(N)=O)C(=O)N[C@H](CCC(N)=O)C(=O)NC(C)(C)C(=O)NC(C)(C)C(=O)N[C@@H](CCC(N)=O)C(=O)N[C@H](CC(C)C)C(=O)N[C@H](CO)CC(C)C (Decanoyl-[Aib]PL[Iva]Q[dQ][Aib][Aib]Q[dL][Leu(ol)])
786-0 renal
  GI50: 1840 nM
  TGI: 3500 nM
A498 renal
  GI50: 1980 nM
  TGI: 3550 nM
A549 NSCLC
  GI50: 1860 nM
  TGI: 3850 nM
ACHN renal
  GI50: 1860 nM
  TGI: 3600 nM
BT-549 breast
  GI50: 1850 nM
  TGI: 3300 nM
CAKI-1 renal
  GI50: 1700 nM
  TGI: 3130 nM
CCRF-CEM leukemia
  GI50: 1810 nM
  TGI: 3600 nM
COLO 205 colon
  GI50: 1860 nM
  TGI: 3600 nM
DU-145 prostate
  GI50: 1750 nM
  TGI: 3130 nM
EKVX NSCLC
  GI50: 1700 nM
  TGI: 3170 nM
HCC-2998 colon
  GI50: 1800 nM
  TGI: 3390 nM
HCT-116 colon
  GI50: 1850 nM
  TGI: 3490 nM
HCT-15 colon
  GI50: 1900 nM
  TGI: 3790 nM
HL-60(TB) leukemia
  GI50: 1870 nM
  TGI: 3970 nM
HOP-62 NSCLC
  GI50: 1950 nM
  TGI: 3800 nM
HOP-92 NSCLC
  GI50: 1640 nM
  TGI: 3140 nM
HS 578T breast
  GI50: 1810 nM
  TGI: 3510 nM
HT29 colon
  GI50: 2010 nM
  TGI: 3830 nM
IGROV1 ovarian
  GI50: 1800 nM
  TGI: 3360 nM
K-562 leukemia
  GI50: 2440 nM
KM12 colon
  GI50: 1830 nM
  TGI: 3330 nM
LOX IMVI melanoma
  GI50: 1730 nM
  TGI: 3290 nM
M14 melanoma
  GI50: 1770 nM
  TGI: 3290 nM
MALME-3M melanoma
  GI50: 1510 nM
  TGI: 2890 nM
MCF7 breast
  GI50: 1780 nM
  TGI: 3450 nM
MDA-MB-231 breast
  GI50: 1760 nM
  TGI: 3260 nM
MDA-MB-435
  GI50: 1750 nM
  TGI: 3160 nM
MOLT-4 leukemia
  GI50: 2290 nM
  TGI: 5900 nM
NCI-H226 lung
  GI50: 1880 nM
  TGI: 3860 nM
NCI-H23 lung
  GI50: 1790 nM
  TGI: 3520 nM
NCI-H460 lung
  GI50: 1890 nM
  TGI: 3470 nM
NCI-H522 lung
  GI50: 1730 nM
  TGI: 3330 nM
NCI/ADR-RES ovarian
  GI50: 1830 nM
  TGI: 3550 nM
OVCAR-3 ovarian
  GI50: 1790 nM
  TGI: 3250 nM
OVCAR-4 ovarian
  GI50: 2050 nM
  TGI: 4630 nM
OVCAR-5 ovarian
  GI50: 1700 nM
  TGI: 3070 nM
OVCAR-8 ovarian
  GI50: 1840 nM
  TGI: 3660 nM
PC-3 prostate
  GI50: 1710 nM
  TGI: 3300 nM
RPMI-8226 leukemia
  GI50: 1920 nM
  TGI: 3950 nM
RXF 393 renal
  GI50: 1930 nM
  TGI: 3450 nM
SF-268 CNS
  GI50: 1760 nM
  TGI: 3310 nM
SF-295 CNS
  GI50: 1750 nM
  TGI: 3260 nM
SF-539 CNS
  GI50: 1720 nM
  TGI: 3110 nM
SK-MEL-2 melanoma
  GI50: 1740 nM
  TGI: 3240 nM
SK-MEL-28 melanoma
  GI50: 1690 nM
  TGI: 3060 nM
SK-MEL-5 melanoma
  GI50: 1740 nM
  TGI: 3170 nM
SK-OV-3 ovarian
  GI50: 1930 nM
  TGI: 3800 nM
SN12C renal
  GI50: 1700 nM
  TGI: 3170 nM
SNB-19 CNS
  GI50: 1700 nM
  TGI: 3100 nM
SNB-75 CNS
  GI50: 1460 nM
  TGI: 2790 nM
SR leukemia
  GI50: 2250 nM
SW-620 colon
  GI50: 1860 nM
  TGI: 3460 nM
T-47D breast
  GI50: 2020 nM
  TGI: 4310 nM
TK-10 renal
  GI50: 1780 nM
  TGI: 3260 nM
U251 CNS
  GI50: 1720 nM
  TGI: 3220 nM
UACC-257 melanoma
  GI50: 1750 nM
  TGI: 3240 nM
UACC-62 melanoma
  GI50: 1630 nM
  TGI: 2980 nM
UO-31 renal
  GI50: 1600 nM
  TGI: 2950 nM
